Where two headings read alike, the source gives them in different places.
Experiments:
[1] = test system: human IR-B; assay: IR-B autophosphorylation (In-Cell Western); assay type: cell-based; details: for EC50: CHO cells overexpressing IR-B, 15 min at 37°C, In-Cell Western, means ± SEM, at least three times, read-out: IR-B auto-phosphorylation EC50
Excerpt: (§1) CHO cells expressing either the IR-A or the IR-B isoform were used for IR autophosphorylation assays using In-Cell Western. For the analysis of IGF1R autophosphorylation the receptor was overexpressed in a mouse embryo fibroblast 3T3 Tet off cell line (BD Bioscience, Heidelberg, Germany) that was stably transfected with IGF1R tetracycline-regulatable expression plasmid resulting in the expression of ∼2.6×10^5 IGF1R per cell (as determined by FACS analysis, unpublished data). In order to determine the receptor tyrosine phosphorylation level, cells were seeded into 96-well plates and grown for 48 h. Cells were serum starved with serum-free medium αMEM (PAN Biotech GmbH, Aidenbach, Germany) for 3–4 h. […] After incubation the medium was discarded and the cells were fixed in 3.75% freshly prepared para-formaldehyde for 20 min. Cells were permeabilized with 0.1% Triton-X-100 in PBS for 20 min. Blocking was performed with Odyssey blocking buffer (LI-COR, Bad Homburg, Germany) overnight at 4°C. Anti-pTyr 4G10 (Millipore, Schwalbach, Germany) was incubated for 2 h at room temperature. After incubation of the primary antibody, cells were washed with PBS+0.1% Tween20. The secondary anti-mouse-IgG-800-CW antibody (Rockland, Gilbertsville, PA, USA) was incubated for 1 h. Results were normalized by the quantification of DNA with TO-PRO3 dye (Invitrogen, Karlsruhe, Germany). Data were obtained as relative units (RU) and are presented as fold over basal.
(§2) For each experiment, IC50 or EC50 values were obtained using the 4-parameter logistic model according to Ratkowsky and Reedy (1986). The adjustment was obtained by non-linear regression using the Levenberg-Marquardt algorithm in SAS v9.1.3 software via Biost@t-Speed V2.0-LTS internal application. If necessary, lower and upper asymptotes were set to 0 and 100, respectively.
(§3) The binding of a constant concentration of [^125I]insulin to plasma membranes from CHO cells overexpressing either IR-A or IR-B was measured in presence of increasing concentrations of unlabeled competing ligand after incubation at room temperature for 12 h. All data has been corrected for non-specific binding and are expressed as percentage of [^125I]insulin in absence of competing ligand. To analyze the insulin-stimulated activation and subsequent autophosphorylation of the insulin receptor CHO cells overexpressing the human IR-A (C) or IR-B (D) were stimulated for 15 min at 37°C with increasing concentrations of peptides, then the cells were fixed with 3.7% PFA and the amount of phosphotyrosines was analyzed via In-Cell Western. The data represent mean values ± SEM of at least 3 individual experiments measured in quadruplicate.
Insulin receptor autophosphorylation was studied using CHO cells overexpressing either IR-A or IR-B. For detection an immunocytochemical microplate assay (In-Cell Western) based on two-colour fluorescence was applied.

[2] = test system: human IGF1R; assay: IGF1R autophosphorylation (In-Cell Western); assay type: cell-based; details: for EC50: MEF cells overexpressing IGF1R, 15 min at 37°C, In-Cell Western, means ± SEM, at least three times, read-out: IGF1R auto-phosphorylation EC50; for more potent in stimulation of IGF1R autophosphorylation: relative to human insulin
Excerpt: as §1, §2
Figure 4 Activity of insulin analogs on the human IGF1R and mitogenic potential in Saos-2 cells. Analysis of binding to the human IGF1R using [^125I]IGF-1 as radioactive ligand (A) and analysis of the insulin-stimulated autophosphorylation of the human IGF1R overexpressed in MEF cells (B) were done as described in figure 2 and Materials and Methods. Data are given as means ± SEM. […] Confluent cells were starved for 4 h and then incubated for 19 h with increasing concentrations of IGF-1, insulin or analog in serum free medium. [^14C]thymidine was added for further 6 h and the radioactivity measured in a Wallac Micro Scintillation counter. Data are given as means ± SEM from octuplicate sample.

[3] = test system: human IR-A; assay: Competitive receptor binding (SPA), IR-A; details: for higher affinity for IR-A than IR-B: IR-A relative to IR-B; for IC50: SPA, WGA PVT PEI beads, 2 µg membranes from CHO cells overexpressing IR-A, 100 pmol/L A14[^125I]-insulin, pH 7.8, 12 h, 23°C, means ± SEM, at least three times, read-out: IR-A affinity IC50; for difference in affinity between IR-A and IR-B: IR-A vs IR-B, in words; for IR-A binding, less active than human insulin: decrease relative to human insulin
Procedure: The binding of the different insulins to the human IR-A and IR-B was analyzed in a competitive binding assay using the scintillation proximity assay as previously described, [30]. […] Briefly, cells were grown to confluence and gently detached, transferred to a centrifugation tube followed by centrifugation for 10 minutes at 600×g at 4°C. The pellet was resuspended in ice-cold 2.25 STM buffer (2.25 mol/L sucrose, 5 mmol/L Tris-HCl pH 7.4, 5 mmol/L MgCl2, 1x Complete Protease Inhibitor) and disrupted using a hand-held Dounce homogenizer followed by sonication. This homogenate was transferred to a centrifugation tube, overlaid with 0.8 STM buffer (0.8 mol/L sucrose, 5 mmol/L Tris-HCl pH 7.4, 5 mmol/L MgCl2, 1x Complete Protease Inhibitor) and centrifuged for 90 minutes at 100 000×g at 4°C. The emerging pellicle at the interface was collected, transferred to a new tube and washed two times with PBS by centrifugation for 10 minutes at 1500×g. The final pellet was resuspended in a small volume of dilution buffer (50 mmol/L Tris-HCl pH 7.4, 5 mmol/L MgCl2, 1x Complete Protease Inhibitor) and homogenized with a Dounce homogenizer. These plasma membrane preparations were stored until usage at –80°C.
Binding experiments were conducted in 96-well microplates. Per well 2 µg of membranes were incubated with 0.25 mg wheat germ agglutinin polyvinyltoluene polyethylenimine SPA beads, 100 pmol/L A14[^125I]-insulin and various concentrations of unlabeled insulins in a binding buffer containing 0.05 mol/L Tris-HCl pH 7.8, 0.15 mol/L NaCl, 0.1% BSA, Complete Protease Inhibitor for 12 hours at room temperature (23°C). The radioactivity was measured at equilibrium in a microplate scintillation counter (Wallac Microbeta, Freiburg, Germany).
as §2, §3

Row | EC50 [1] [nM] | EC50 [2] [nM] | higher affinity for IR-A than IR-B [3] [fold] | IR-A affinity less potent than human insulin ([3]; IR-A, relative to human insulin) | IC50 [3] [nM] | IR-A binding, more potent relative to human insulin ([3]; relative to human insulin) [fold] | EC50 ([2]; listed as M2) [nM] | Substance | less potent relative to IGF-1 (IGF1R autophosphorylation) [2] [times] | more potent in stimulation of IGF1R autophosphorylation [2] | difference in affinity between IR-A and IR-B [3] | IR-A binding, less active than human insulin [3] | decrease in IR-B autophosphorylation activity ([1]; relative to human insulin) | EC50 ([2]; listed as M1) [nM]
1 | 11.7 ± 1.4 | 447 ± 38.7 | – | – | – | – | – | Human insulin: human insulin produced by recombinant DNA techniques or enzymatic semisynthesis | – | – | – | – | – | –
2 | > 1000 | 2.9 ± 0.4 | 2.7 | approximately 130 fold | 64.5 ± 5.1 | – | – | IGF-1: IGF-1 obtained from R&D Systems and Cell Sciences | – | – | – | – | – | –
3 | 3.32 ± 0.78 | 72.7 ± 7.6 | 3.5 | – | 0.06 ± 0.01 | 8.2 | – | [Asp^B10]insulin | ~25 | about 5 fold | – | – | – | –
4 | 20.9 ± 1.3 | 179 ± 19.6 | – | – | 0.78 ± 0.03 | – | – | [Gly^A21,Arg^B31]insulin [Glargine IM] | – | 2 fold | no difference | 40–50% | – | –
5 | 21.4 ± 2.3 | 485 ± 43.6 | – | – | 0.93 ± 0.16 | – | > 400 | [Gly^A21,des-Thr^B30]insulin [Glargine M2] | – | – | no difference | 40–50% | – | –

Row | Substance | EC50 [1] [nM] | EC50 [2] [nM] | higher affinity for IR-A than IR-B [3] [fold] | IR-A affinity less potent than human insulin ([3]; IR-A, relative to human insulin) | IC50 [3] [nM] | IR-A binding, more potent relative to human insulin ([3]; relative to human insulin) [fold] | EC50 ([2]; listed as M2) [nM] | less potent relative to IGF-1 (IGF1R autophosphorylation) [2] [times] | more potent in stimulation of IGF1R autophosphorylation [2] | difference in affinity between IR-A and IR-B [3] | IR-A binding, less active than human insulin [3] | decrease in IR-B autophosphorylation activity ([1]; relative to human insulin) | EC50 ([2]; listed as M1) [nM]
6 | [Gly^A21,Arg^B31,Arg^B32]insulin [Glargine] | 23.6 ± 2.1 | 87.5 ± 10 | – | – | 0.83 ± 0.08 | – | – | ~30 | about 5 fold | no difference | 40–50% | 30–50% | –
7 | [Gly^A21]insulin [Glargine M1] | 18.1 ± 1.7 | 644 ± 56.9 | – | – | 1.02 ± 0.03 | – | – | – | – | no difference | 40–50% | – | > 400
